Test results from ChEMBL document CHEMBL1127708, “Aromatase inhibitors. Syntheses and structure-activity studies of novel pyridyl-substituted indanones, indans, and tetralins” (J Med Chem, 1994).

Columns and labels:
Rattus norvegicus [1] = organism: Rattus norvegicus; type: functional; conditions: dose 10.3 mg/kg
Rattus norvegicus [2] = organism: Rattus norvegicus; type: functional; conditions: dose 10.3 mg/kg; remark: listed apart in the source
Rattus norvegicus [3] = organism: Rattus norvegicus; type: functional; conditions: dose 10.3 mg/kg; remark: listed apart in the source
Rattus norvegicus [4] = organism: Rattus norvegicus; type: functional; conditions: dose 10.3 mg/kg; remark: listed apart in the source
Rattus norvegicus [5] = organism: Rattus norvegicus; type: functional; conditions: dose 10.3 mg/kg; remark: listed apart in the source
Rattus norvegicus [6] = organism: Rattus norvegicus; type: functional; conditions: dose 10.3 mg/kg; remark: listed apart in the source
Rattus norvegicus [7] = organism: Rattus norvegicus; type: functional; conditions: dose 10.3 mg/kg; remark: listed apart in the source
Aromatase = target: T1, Aromatase (Rattus norvegicus, UniProt P22443)
T1 sequence (P22443 whole entry): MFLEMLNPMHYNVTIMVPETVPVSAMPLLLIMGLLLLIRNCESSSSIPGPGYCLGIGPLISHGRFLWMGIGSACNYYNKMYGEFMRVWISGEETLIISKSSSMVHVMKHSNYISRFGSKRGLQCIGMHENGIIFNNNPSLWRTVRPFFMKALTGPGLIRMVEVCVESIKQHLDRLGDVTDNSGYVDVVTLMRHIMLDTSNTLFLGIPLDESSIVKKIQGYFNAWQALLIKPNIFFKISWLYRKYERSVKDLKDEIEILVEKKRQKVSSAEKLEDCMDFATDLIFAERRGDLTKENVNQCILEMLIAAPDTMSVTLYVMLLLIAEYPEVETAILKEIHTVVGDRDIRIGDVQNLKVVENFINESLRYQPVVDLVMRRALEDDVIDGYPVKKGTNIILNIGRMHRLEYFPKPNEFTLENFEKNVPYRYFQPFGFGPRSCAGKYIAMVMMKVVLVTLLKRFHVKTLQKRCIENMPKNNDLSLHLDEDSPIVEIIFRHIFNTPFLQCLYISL

Rattus norvegicus [8] = organism: Rattus norvegicus; type: functional
Rattus norvegicus [9] = organism: Rattus norvegicus; type: functional; remark: listed apart in the source
Rattus norvegicus [10] = organism: Rattus norvegicus; type: functional; remark: listed apart in the source
Rattus norvegicus [11] = organism: Rattus norvegicus; type: functional; remark: listed apart in the source
Rattus norvegicus [12] = organism: Rattus norvegicus; type: functional; remark: listed apart in the source
Rattus norvegicus [13] = organism: Rattus norvegicus; type: functional; conditions: dose 10 mg/kg
Rattus norvegicus [14] = organism: Rattus norvegicus; type: functional; remark: listed apart in the source
Rattus norvegicus [15] = organism: Rattus norvegicus; type: functional; conditions: dose 10 mg/kg; remark: listed apart in the source
Rattus norvegicus [16] = organism: Rattus norvegicus; type: functional; conditions: dose 10 mg/kg; remark: listed apart in the source
Rattus norvegicus [17] = organism: Rattus norvegicus; type: functional; conditions: dose 10 mg/kg; remark: listed apart in the source
Rattus norvegicus [18] = organism: Rattus norvegicus; type: functional; conditions: dose 10 mg/kg; remark: listed apart in the source
Rattus norvegicus [19] = organism: Rattus norvegicus; type: functional; conditions: dose 10 mg/kg; remark: listed apart in the source
Rattus norvegicus [20] = organism: Rattus norvegicus; type: functional; conditions: dose 10 mg/kg; remark: listed apart in the source
Rattus norvegicus [21] = organism: Rattus norvegicus; type: functional; conditions: dose 10 mg/kg; remark: listed apart in the source

Compound: Oc1cccc2c1CCC(Cc1ccncc1)C2 (stereo not drawn)
- Change of tumor area (Rattus norvegicus [1]): 24%
- Change of tumor area (Rattus norvegicus [2]): 19%
- No. of tumors (Rattus norvegicus [3]): 37
- Change of tumor area (Rattus norvegicus [4]): 41%
- No. of tumors (Rattus norvegicus [5]): 4
- Change of tumor area (Rattus norvegicus [6]): 123%
- Change of tumor area (Rattus norvegicus [7]): 16%

Compound: O=C1c2ccc(O)cc2CC1Cc1ccncc1 (stereo not drawn)
- Effect (Aromatase): 160

Compound: CCC(=O)OC1CCC2C3CCC4=CC(=O)CCC4C3CCC12C (stereo not drawn)
- No. of tumors (Rattus norvegicus [8]): 12
- Change of tumor area (Rattus norvegicus [9]): 19%
- Change of tumor area (Rattus norvegicus [10]): 19%
- Change of tumor area (Rattus norvegicus [11]): 36%
- Change of tumor area (Rattus norvegicus [12]): 25%
- Change of tumor area (Rattus norvegicus [13]): 141%
- No. of tumors (Rattus norvegicus [14]): 36

Compound: COc1ccc2c(c1)CC(Cc1ccncc1)C2=O (stereo not drawn)
- Effect (Aromatase): 150

Compound: CCC1(c2ccc(N)cc2)CCC(=O)NC1=O (stereo not drawn) [AMINOGLUTETHIMIDE]
- Change of tumor area (Rattus norvegicus [15]): 17%
- No. of tumors (Rattus norvegicus [16]): 35
- Change of tumor area (Rattus norvegicus [17]): 4%
- Change of tumor area (Rattus norvegicus [18]): 23%
- Change of tumor area (Rattus norvegicus [19]): 54%
- Of tumors (Rattus norvegicus [20]): 6%
- No. of tumors (Rattus norvegicus [21]): 7
